Patent US20230037862A1, “SYNTHETIC AGONISTS OF TLR4 RECEPTOR” (UNIVERSITÀ DEGLO STUDI DI MILANO - BICOCCA, priority 2017, published 2023)
Entries after “also recorded” stand apart in the source; their conditions may differ.

Tests used:
HEK-Blue™ Null2 cells = assay: HEK-Blue Null2 counter-assay (SEAP reporter, no TLR4/MD-2/CD14); format: cell-based; details: 16-18 hours
Description: (§1) HEK-Blue™ hTLR4 (FIG. 1A) and HEK-Blue™ Null2 (FIG. 1B) cells were treated with the indicated concentrations of compounds FP11, FP111, and with LPS (100 ng/mL) and incubated for 16-18 hours. Results were normalized to stimulation with LPS alone, and are expressed as mean of percentage ±ES. of at least three independent experiments.
In order to be certain that the agonist effect of compound FP11 be due to the interaction with the TLR4 receptor, the compounds were tested on the HEK-Blue™ Null2 cell line. Said line expresses the same reporter gene of HEK-Blue™ hTLR4 cells (SEAP), but has none of the receptors involved in endotoxin recognition (TLR4, MD-2, CD14).

[1] = biological target: T1, purified human MD-2 receptor (Homo sapiens, UniProt Q9Y6Y9); assay: Biotinylated LPS displacement from MD-2 hydrophobic pocket (ELISA); format: binding; details: increasing concentrations, highest 160 μM
T1 sequence (Q9Y6Y9 19-160): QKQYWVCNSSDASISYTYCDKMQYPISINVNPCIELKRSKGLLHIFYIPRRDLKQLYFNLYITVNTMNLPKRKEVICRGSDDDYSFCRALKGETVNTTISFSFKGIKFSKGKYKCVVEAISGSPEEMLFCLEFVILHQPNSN
Description: The ability to displace LPS from MD-2 hydrophobic pocket was assessed by using an ELISA assay. Molecules FP11 and FP111 were added at increasing concentrations to MD-2 which had previously been incubated with biotinylated LPS.
The ability of the compounds to displace LPS from MD-2 hydrophobic pocket was determined by ELISA.
A microtiter plate was coated overnight at 4° C. with 100 μL/well of 5 μg/mL chicken polyclonal anti-MD-2 antibodies, diluted in 50 mM Na2CO3 buffer, pH 9.6, and blocked with 1% BSA in PBS. After washing, 1 μM MD-2 with biotin-labeled LPS was added and incubated for 2 h. After washing, the compounds were added at different concentrations and incubated for 1.5 h.
After washing, 0.5 μg/mL HRP-conjugated streptavidin (Sigma) in PBS was added, followed by detection at 420 nm after the addition of 100 μL of ABTS (Sigma). Chicken anti-MD-2 polyclonal antibodies were prepared against recombinant MD-2 by GenTel (Madison, Wis., USA),

[2] = biological target: T1, purified human MD-2 receptor; assay: Surface plasmon resonance binding to MD-2
Description: Surface plasmon resonance (SPR) experiments enable the study of direct interactions between the molecules to be characterized and MD-2.
The binding affinity of the compounds to recombinant MD-2 was determined using a Biacore X100 with an NTA sensor chip (Biacore, GE Healthcare, Uppsala, Sweden). Briefly, 0.5 μM MD-2 (in 50 mM TRIS, 150 mM NaCl, 0.5% Tween 20, pH 7.5) was immobilized onto the sensor chip previously activated with 1 min pulse of 10 mM NiSO4. The first flow cell was used as a reference surface to control nonspecific binding.
Both flow cells were incubated with the analyte (in PBS, 5% DMSO, 5% EtOH, pH 7.5) at a flow rate of 10 μL/min at 25° C. at increasing concentrations. The data were analyzed with Biacore Evaluation software. KD values were calculated by global fitting of the equilibrium binding responses from various concentrations of analytes using a 1:1 Langmuir binding model.

hTLR4 = biological target: T2, hTLR4 (Homo sapiens, UniProt O00206+Q9Y6Y9); assay: HEK-Blue hTLR4 SEAP reporter assay (NF-κB/AP-1 activation); format: cell-based; details: HEK-Blue hTLR4 cells, 16-18 hours, SEAP reporter
T2 construct: host or cells: HEK-Blue hTLR4 (HEK cells)
Description: as §1
HEK-Blue™ hTLR4 cells were treated with increasing concentrations of compound FP11 and of LPS and incubated for 16-18 hours. Results were normalized to maximum activation of the reporter produced by LPS (FIG. 2A) and to maximum activation of the reporter produced by the compound itself (FIG. 2B). Data were fitted to a sigmoidal four-parameter logistic equation in order to determine IC50 values, and expressed as mean of percentage ±ES of at least three independent experiments.
HEK-Blue™ hTLR4 cells are HEK cells transfected so as to stably express human receptors hTLR4, hMD-2, and hCD14 for endotoxin recognition. In addition, said cells have a reporter gene encoding for a secreted alkaline phosphatase (SEAP) μlaced under the control of specific transcription factors (NF-κB and AP-1) activated by the TLR4 signaling pathway. Therefore, the presence of LPS or of an agonist of TLR4 causes receptor dimerization, activation of the signaling pathway and of transcription factors NF-κB and AP-1, and finally SEAP production and secretion into the culture medium. SEAP levels can be subsequently quantitated by incubating the medium with compound p-nitrophenylphosphate (pNPP) and monitoring with a spectrophotometer the formation of p-nitrophenol chromogenic product at 405 nm.
HEK-Blue™ hTLR4 cells (InvivoGen) were cultured according to manufacturer's instruction. […]
Cells were detached using a cell scraper, counted and seeded in a 96-well multiwell plate at a density of 4×10^4 cells per well. […]
The wells' optical density was determined using a microplate reader set at 405 nm.
The results were normalized with positive control (LPS alone) and expressed as a mean of percentage ±SEM of at least three independent experiments.

[3] = biological target: T1, purified human MD-2 receptor; assay: Anti-MD-2 antibody (9B4) competition, antibody-sandwich ELISA; format: binding; details: up to 20 μM
Description: The direct binding of molecules FP11 and FP111 to MD-2 was analyzed by using a monoclonal antibody binding MD-2, but not LPS-bound MD-2 (Viriyakosol, S., et al., Characterization of monoclonal antibodies to human soluble MD-2 protein. Hybridoma (Larchmt), 2006. 25(6): p. 349-57).
Anti-MD-2 monoclonal antibody (9B4) specifically binds an epitope near the MD-2 hydrophobic pocket, which is available for 9B4 antibody binding only when the MD-2 hydrophobic pocket is empty. Compound FP11 is accountable for a decrease of 9B4 antibody binding to MD-2 equal to 95% at a concentration of 20 μM (FIG. 3E).
The method of antibody-sandwich ELISA for the detection of the binding of compounds to MD-2 was modified from a previous study.
A microtiter plate was coated overnight at 4° C. with 100 μL/well of 5 μg/mL of chicken polyclonal anti-MD-2 antibodies, diluted in 50 mM Na2CO3 buffer, pH 9.6, and blocked with 1% BSA in PBS. After washing, 1 μM MD-2 with tested compounds was added and incubated for 2 h.
Mouse anti-MD-2 mAb (0.1 μg/mL 9B4) and goat antimouse IgG conjugated with HRP (0.1 μg/mL) in PBS were added, followed by detection at 420 nm after the addition of 100 μL of ABTS (Sigma).
Chicken anti-MD-2 polyclonal antibodies were prepared against recombinant MD-2 by GenTel (Madison, Wis., USA), monoclonal mouse anti-MD-9B4 antibodies were from eBioscience (San Diego, Calif., USA), and secondary goat antimouse IgG conjugated with horseradish peroxidase was from Santa Cruz Biotechnology (Santa Cruz, Calif., USA).

[4] = biological target: T1, purified human MD-2 receptor; assay: MD-2-bound fluorescent molecule (bis-ANS) displacement assay; format: binding; details: MD-2 200 nM, bis-ANS 200 nM
Description: therefore, TLR4 modulators that interact with MD-2 compete with compound bis-ANS, and are able to displace it from MD-2.
Fluorescence was measured on PerkinElmer fluorimeter LS 55 (PerkinElmer, UK) as previously described^[5].
All measurements were done at 20° C. in a 5×5 mm quartz glass cuvette (Hellma Suprasil, Müllheim, Germany). MD-2 protein (200 nM) and 1,1′-Bis(anilino)-4,4′-bis (naphtalene)-8,8′ disulfonate (bis-ANS, 200 nM) were mixed and incubated until reaching stable relative fluorescence units (RFUs) emitted at 420-550 nm under excitation at 385 nm.
Compounds, at different concentrations, were then added, followed by relative fluorescence unit (RFU) measurement at 420-550 nm.

[5] = tumour-affected patients; cited from earlier work
[6] = test system: murine macrophages and neutrophil granulocytes; details: cited from earlier work
CD14 = details: human peripheral blood cells; cited from earlier work
infective agent = details: once or thrice, myelo-suppressed or immunocompetent mice; cited from earlier work
Escherichia coli = details: one dose one day prior to microbial inoculation; cited from earlier work
[7] = galactosamine-sensitized mice; cited from earlier work
[8] = repeated dosages; cited from earlier work

T2 sequence (O00206 24-839): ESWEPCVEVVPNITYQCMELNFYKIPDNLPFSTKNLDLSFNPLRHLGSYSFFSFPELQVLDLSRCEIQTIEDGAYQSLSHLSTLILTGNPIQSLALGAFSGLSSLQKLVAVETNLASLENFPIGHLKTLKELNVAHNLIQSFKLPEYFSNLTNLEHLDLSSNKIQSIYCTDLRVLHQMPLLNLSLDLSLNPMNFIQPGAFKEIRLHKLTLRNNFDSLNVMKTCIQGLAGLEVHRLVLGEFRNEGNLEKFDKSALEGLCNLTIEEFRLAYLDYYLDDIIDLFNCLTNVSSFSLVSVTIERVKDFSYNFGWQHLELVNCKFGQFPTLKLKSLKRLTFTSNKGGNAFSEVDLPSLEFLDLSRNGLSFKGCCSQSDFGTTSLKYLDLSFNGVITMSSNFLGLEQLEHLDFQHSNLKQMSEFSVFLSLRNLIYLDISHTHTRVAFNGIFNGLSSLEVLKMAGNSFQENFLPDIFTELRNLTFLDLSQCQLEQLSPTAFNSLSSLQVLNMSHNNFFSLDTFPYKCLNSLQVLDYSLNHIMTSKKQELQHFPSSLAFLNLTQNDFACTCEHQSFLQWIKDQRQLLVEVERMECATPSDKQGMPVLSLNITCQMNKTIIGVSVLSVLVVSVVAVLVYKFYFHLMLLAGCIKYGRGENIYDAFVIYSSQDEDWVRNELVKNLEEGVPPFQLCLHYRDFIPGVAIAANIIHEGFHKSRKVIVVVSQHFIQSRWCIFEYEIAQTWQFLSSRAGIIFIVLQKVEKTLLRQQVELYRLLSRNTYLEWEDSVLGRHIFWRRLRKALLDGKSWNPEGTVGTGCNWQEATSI
T2 sequence (Q9Y6Y9 17-160 limits assumed): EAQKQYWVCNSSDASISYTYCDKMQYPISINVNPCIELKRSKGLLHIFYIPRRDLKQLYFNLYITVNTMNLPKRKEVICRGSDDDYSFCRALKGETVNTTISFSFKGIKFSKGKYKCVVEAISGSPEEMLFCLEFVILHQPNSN

| TLR4 agonist activity (activation of NF-κB and AP-1) (hTLR4) | Structure (SMILES) | activation of transcription factors NF-κB and AP-1 in cells without TLR4, MD-2, CD14 (HEK-Blue™ Null2 cells) | ability to displace biotinylated LPS from MD-2 hydrophobic pocket [1] | direct binding to MD-2 (SPR) [2] | prevention of monoclonal antibody 9B4 binding to MD-2 [3] | decrease of bis-ANS fluorescence / inhibition of bis-ANS binding to MD-2 [4] | effect on granulocyte counts and serum cytokine levels [5] | safety and tolerability of administration [5] | stimulation of release of IL-6, IL-8 and TNF-α [6] | blocking of compound-induced TNF-α release by monoclonal antibodies for CD-14 (CD14) | protective effect on prophylactic administration (infective agent) | effect on curative effects of antibiotics (Escherichia coli) | factor of toxicity reduction compared to parent endotoxin (Salmonella abortus equi) [7] | duration of transient resistance to endotoxin-related lethal risks [8] |
| --- | --- | --- | --- | --- | --- | --- | --- | --- | --- | --- | --- | --- | --- | --- |
| completely inactive | CCCCCCCCCCCCCC(=O)NC1[C@H](OP(=O)(O)O)OC(COP(=O)(O)O)[C@@H](OC(=O)CCCCCCCCCCCCC)[C@@H]1OC(=O)CCCCCCCCCCCCC (stereo partly drawn) [FP111, 1,6-O-Phosphoryl-2-deoxy-4-O-tetradecanoyl 3-O-tetradecanoyl-2-tetradecanoylamino-α-D-glucopiranoside] | unable to activate transcription factors NF-κB and AP-1 | unable to displace biotinylated LPS; also recorded: but not FP111, displaces biotinylated LPS | but not FP111, directly binds MD-2; also recorded: does not bind MD-2 | unable to cause a decrease of 9B4 antibody binding; also recorded: but not FP111, prevents the binding of monoclonal antibody to MD-2 | not able to induce a decrease of compound bis-ANS fluorescence; also recorded: but not FP111, inhibits the binding of bis-ANS to MD-2 | – | – | – | – | – | – | – | – |
| – | CCCCCCCCCCC[C@@H](O)CC(=O)N[C@H]1[C@@H](OP(=O)(O)O)O[C@H](CO)[C@@H](OC(=O)C[C@H](O)CCCCCCCCCCC)[C@@H]1OC(=O)C[C@H](O)CCCCCCCCCCC [SDZ MRL 953] | – | – | – | – | – | increases granulocyte counts and serum levels of G-CSF and interleukin-6 (IL-6), but not of pro-inflammatory cytokines TNF-α, IL-1b, and IL-8 | safe and of excellent tolerability | potent activity in stimulating the release of inflammatory cytokines | is not blocked | highly protective effect | dramatically increased the curative effects of antibiotics administered | at least 10^4 | ≥ 1 week |
